Source: article PMC6407917, “Identification of GSK3186899/DDD853651 as a Preclinical Development Candidate for the Treatment of Visceral Leishmaniasis” (Journal of Medicinal Chemistry, 2018)

What was measured:
Assay in all cases: biochemical
Parameters in all cases: species or system HEK293/K-562/placenta mixed human extract; Kinobeads chemoproteomic competition binding, quantified by TMT LC-MS/MS, dose response up to 20 uM
ITK = ITK (Homo sapiens, UniProt Q08881)
ACVR1B = ACVR1B (Homo sapiens, UniProt P36896)
TEK = TEK (Homo sapiens, UniProt Q02763)
NTRK1 = NTRK1 (Homo sapiens, UniProt P04629)
IRAK1 = IRAK1 (Homo sapiens, UniProt P51617)
PIP4K2B = PIP4K2B (Homo sapiens, UniProt P78356)
AKT1 = AKT1 (Homo sapiens, UniProt P31749)
BMPR1A = BMPR1A (Homo sapiens, UniProt P36894)
HIPK2 = HIPK2 (Homo sapiens, UniProt Q9H2X6)
PRKCD = PRKCD (Homo sapiens, UniProt Q05655)
TLK2 = TLK2 (Homo sapiens, UniProt Q86UE8)
CDKL5 = CDKL5 (Homo sapiens, UniProt O76039)
CSNK1D = CSNK1D (Homo sapiens, UniProt P48730)
DAPK1 = DAPK1 (Homo sapiens, UniProt P53355)
MAP3K7 = MAP3K7 (Homo sapiens, UniProt O43318)
IRAK3 = IRAK3 (Homo sapiens, UniProt Q9Y616)
CDC42BPA = CDC42BPA (Homo sapiens, UniProt Q5VT25)
FER = FER (Homo sapiens, UniProt P16591)
MAPK8 = MAPK8 (Homo sapiens, UniProt P45983)
TAOK1 = TAOK1 (Homo sapiens, UniProt Q7L7X3)
TP53RK = TP53RK (Homo sapiens, UniProt Q96S44)

Chain of ITK (Q08881 whole entry): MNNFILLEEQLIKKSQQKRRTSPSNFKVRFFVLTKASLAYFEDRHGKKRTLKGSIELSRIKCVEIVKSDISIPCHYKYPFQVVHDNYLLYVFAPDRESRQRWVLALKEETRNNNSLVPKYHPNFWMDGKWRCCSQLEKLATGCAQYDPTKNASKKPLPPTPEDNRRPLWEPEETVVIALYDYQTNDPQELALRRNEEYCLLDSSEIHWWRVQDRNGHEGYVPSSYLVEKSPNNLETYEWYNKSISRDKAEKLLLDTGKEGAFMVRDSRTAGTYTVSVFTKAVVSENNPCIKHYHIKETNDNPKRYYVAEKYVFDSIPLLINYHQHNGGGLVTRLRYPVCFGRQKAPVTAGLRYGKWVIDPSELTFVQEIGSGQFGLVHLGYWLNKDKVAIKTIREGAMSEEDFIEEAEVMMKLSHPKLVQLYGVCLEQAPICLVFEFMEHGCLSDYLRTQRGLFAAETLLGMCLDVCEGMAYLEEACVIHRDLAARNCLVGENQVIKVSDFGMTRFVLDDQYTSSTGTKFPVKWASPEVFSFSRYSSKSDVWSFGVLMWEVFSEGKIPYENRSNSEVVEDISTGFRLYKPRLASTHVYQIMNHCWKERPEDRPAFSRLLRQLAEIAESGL
Chain of IRAK1 (P51617 whole entry): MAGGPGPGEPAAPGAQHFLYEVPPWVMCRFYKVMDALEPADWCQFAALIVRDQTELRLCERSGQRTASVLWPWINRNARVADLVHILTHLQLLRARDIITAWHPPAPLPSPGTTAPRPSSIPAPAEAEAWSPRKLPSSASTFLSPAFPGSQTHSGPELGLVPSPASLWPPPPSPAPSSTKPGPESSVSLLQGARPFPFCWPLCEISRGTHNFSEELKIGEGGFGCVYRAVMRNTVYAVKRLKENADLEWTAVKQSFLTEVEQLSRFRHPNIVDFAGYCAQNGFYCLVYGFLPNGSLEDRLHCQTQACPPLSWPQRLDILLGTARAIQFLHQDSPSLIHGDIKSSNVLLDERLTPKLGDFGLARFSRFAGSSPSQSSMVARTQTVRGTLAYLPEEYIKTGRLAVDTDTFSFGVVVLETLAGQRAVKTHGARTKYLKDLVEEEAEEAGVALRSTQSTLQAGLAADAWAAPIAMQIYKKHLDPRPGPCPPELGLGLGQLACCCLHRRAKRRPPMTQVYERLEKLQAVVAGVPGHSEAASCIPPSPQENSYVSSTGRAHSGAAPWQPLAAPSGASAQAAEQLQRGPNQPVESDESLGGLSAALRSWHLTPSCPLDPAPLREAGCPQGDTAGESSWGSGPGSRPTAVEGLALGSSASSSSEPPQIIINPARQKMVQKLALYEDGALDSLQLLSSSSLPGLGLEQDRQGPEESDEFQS
Chain of BMPR1A (P36894 whole entry): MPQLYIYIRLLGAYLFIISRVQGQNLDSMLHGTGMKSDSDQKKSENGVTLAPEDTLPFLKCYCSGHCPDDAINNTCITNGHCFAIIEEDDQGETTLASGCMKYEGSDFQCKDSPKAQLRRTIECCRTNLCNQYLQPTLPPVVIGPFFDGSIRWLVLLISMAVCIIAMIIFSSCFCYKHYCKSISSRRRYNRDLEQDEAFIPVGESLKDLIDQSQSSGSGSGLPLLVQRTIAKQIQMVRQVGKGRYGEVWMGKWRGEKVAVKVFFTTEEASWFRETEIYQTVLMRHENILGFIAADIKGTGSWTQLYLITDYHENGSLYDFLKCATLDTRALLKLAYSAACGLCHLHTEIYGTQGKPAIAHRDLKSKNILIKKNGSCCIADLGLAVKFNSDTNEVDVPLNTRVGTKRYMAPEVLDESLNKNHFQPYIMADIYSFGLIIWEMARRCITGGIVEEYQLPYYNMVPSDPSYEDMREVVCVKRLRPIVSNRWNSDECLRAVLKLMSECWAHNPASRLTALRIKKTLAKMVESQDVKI
Chain of TLK2 (Q86UE8 whole entry): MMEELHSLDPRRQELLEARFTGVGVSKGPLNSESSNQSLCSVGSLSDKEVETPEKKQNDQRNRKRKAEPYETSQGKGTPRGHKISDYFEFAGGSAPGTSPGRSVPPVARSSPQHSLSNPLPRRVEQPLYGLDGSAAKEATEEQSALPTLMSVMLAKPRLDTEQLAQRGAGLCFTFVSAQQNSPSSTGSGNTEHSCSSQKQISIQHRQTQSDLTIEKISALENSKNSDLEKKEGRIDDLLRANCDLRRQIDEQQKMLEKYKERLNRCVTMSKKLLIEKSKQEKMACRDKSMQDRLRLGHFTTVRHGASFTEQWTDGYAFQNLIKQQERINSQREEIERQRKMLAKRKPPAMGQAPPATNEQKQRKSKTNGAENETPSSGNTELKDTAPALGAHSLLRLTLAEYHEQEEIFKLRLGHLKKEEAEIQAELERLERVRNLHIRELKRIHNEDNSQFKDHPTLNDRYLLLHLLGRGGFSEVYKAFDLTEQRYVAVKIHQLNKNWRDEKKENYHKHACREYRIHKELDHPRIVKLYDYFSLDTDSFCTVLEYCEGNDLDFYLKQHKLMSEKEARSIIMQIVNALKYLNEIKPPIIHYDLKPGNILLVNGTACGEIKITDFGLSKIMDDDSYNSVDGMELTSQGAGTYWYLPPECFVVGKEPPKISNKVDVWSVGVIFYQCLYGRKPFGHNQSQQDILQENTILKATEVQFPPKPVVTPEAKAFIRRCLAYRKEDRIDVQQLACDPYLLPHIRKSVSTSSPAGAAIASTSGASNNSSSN
Chain of CDKL5 (O76039 whole entry): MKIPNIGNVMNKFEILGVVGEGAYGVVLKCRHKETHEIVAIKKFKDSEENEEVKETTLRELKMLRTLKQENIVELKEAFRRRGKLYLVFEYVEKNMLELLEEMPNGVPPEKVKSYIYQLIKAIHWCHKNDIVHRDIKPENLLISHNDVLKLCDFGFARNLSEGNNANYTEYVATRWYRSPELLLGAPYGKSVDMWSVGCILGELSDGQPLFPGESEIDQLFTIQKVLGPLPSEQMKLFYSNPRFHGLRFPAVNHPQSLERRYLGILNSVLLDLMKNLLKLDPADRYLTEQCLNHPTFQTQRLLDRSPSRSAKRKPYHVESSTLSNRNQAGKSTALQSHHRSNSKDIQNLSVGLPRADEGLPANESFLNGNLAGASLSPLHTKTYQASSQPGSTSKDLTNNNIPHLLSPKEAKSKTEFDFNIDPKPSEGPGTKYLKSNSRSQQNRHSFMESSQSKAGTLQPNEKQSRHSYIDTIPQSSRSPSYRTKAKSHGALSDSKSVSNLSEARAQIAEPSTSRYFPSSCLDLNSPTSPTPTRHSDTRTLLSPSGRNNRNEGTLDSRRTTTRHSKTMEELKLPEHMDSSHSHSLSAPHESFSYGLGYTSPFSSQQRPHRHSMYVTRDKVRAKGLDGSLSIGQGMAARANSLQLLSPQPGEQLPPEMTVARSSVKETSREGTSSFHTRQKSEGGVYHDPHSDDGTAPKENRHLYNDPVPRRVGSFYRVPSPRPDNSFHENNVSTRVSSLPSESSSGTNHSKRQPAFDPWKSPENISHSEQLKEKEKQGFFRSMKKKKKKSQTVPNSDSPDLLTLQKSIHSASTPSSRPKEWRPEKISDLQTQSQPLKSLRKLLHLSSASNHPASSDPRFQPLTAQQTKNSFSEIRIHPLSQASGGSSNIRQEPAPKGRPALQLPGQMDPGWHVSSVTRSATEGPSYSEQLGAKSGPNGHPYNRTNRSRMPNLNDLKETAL
Chain of DAPK1 (P53355 whole entry): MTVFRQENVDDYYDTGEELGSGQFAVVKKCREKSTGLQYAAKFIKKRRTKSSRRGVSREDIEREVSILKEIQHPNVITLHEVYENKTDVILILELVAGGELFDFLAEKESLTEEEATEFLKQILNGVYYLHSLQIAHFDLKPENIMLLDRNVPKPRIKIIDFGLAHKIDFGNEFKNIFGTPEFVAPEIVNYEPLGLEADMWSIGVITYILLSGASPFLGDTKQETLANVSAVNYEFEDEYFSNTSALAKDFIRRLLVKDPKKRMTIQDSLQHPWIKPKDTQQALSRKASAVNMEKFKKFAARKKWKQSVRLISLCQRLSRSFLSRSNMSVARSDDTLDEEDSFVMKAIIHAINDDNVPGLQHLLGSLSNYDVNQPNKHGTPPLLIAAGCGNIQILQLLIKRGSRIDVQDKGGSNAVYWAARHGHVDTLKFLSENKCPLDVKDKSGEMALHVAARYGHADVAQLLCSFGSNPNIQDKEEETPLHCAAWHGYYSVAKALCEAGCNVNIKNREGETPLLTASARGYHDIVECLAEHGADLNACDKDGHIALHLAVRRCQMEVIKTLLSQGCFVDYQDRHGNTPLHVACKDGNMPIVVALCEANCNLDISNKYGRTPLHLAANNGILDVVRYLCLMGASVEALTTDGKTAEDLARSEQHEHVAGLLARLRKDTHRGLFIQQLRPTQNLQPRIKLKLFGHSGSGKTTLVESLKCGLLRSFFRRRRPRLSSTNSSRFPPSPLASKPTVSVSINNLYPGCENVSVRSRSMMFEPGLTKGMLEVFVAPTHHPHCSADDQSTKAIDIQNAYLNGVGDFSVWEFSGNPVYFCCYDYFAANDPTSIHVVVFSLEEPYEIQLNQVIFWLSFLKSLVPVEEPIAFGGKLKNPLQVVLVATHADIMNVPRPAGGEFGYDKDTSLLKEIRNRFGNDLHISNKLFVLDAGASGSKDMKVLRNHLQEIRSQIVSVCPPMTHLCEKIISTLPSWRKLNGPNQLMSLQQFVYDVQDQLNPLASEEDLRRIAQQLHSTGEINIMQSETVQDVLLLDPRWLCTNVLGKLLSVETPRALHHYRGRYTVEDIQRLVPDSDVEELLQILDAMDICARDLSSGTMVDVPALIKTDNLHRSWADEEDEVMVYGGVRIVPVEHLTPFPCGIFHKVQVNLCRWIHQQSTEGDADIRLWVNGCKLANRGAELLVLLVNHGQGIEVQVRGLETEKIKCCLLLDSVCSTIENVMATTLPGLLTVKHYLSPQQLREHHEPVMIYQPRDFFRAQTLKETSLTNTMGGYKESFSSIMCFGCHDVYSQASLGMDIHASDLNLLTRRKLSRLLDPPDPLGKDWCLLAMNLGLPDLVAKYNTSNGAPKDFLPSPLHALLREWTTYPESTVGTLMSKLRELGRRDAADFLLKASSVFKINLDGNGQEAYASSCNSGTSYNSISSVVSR

Molecule COc1ccccc1-c1n[nH]c2nc(N[C@H]3CC[C@H](NS(=O)(=O)CCC(F)(F)F)CC3)nc(OC)c12 [compound 31, 3,3,3-Trifluoro-N-(trans-4-((4-methoxy-3-(2-methoxyphenyl)-1H-pyrazolo[3,4-d]pyrimidin-6-yl)amino)cyclohexyl)propane-1-sulfonamide] has an IC50 (ITK) of no less than 20 µM, an IC50 (ACVR1B) of no less than 20 µM and an IC50 (TEK) of no less than 20 µM. For the same molecule, the IC50 (NTRK1) was no less than 20 µM, the IC50 (IRAK1) was no less than 20 µM and the IC50 (PIP4K2B) was 9.4 µM. It also gave an IC50 (AKT1) of no less than 20 µM, an IC50 (BMPR1A) of no less than 20 µM and an IC50 (HIPK2) of no less than 20 µM. It also gave an IC50 (PRKCD) of no less than 20 µM, an IC50 (TLK2) of no less than 20 µM and an IC50 (CDKL5) of no less than 20 µM. The IC50 (CSNK1D) was no less than 20 µM, the IC50 (DAPK1) was no less than 20 µM and the IC50 (MAP3K7) was no less than 20 µM. The IC50 (IRAK3) was no less than 20 µM, the IC50 (CDC42BPA) was no less than 20 µM and the IC50 (FER) was no less than 20 µM. For the same molecule, the IC50 (MAPK8) was no less than 20 µM, the IC50 (TAOK1) was 1.5 µM and the IC50 (TP53RK) was no less than 20 µM.
